Assay results published in patent US20070251020A1, “Fungicidal compositions and methods of using the same” (priority 2006, published 2007).

Tests used:
Format in all cases: cell-based
Aspergillus niger [1] = test: Screening for anti-fungal activity in mineral-salts glucose medium, visual growth / no growth; design: key: −: no growth; +: slight growth; ++: moderate growth; +++: heavy growth; ++++: very heavy growth; conditions: 25° C.
Protocol: The pH of the medium was adjusted to 6 with 1N NaOH. The medium was distributed in 50 ml amounts into 250 ml flasks and autoclaved at 121° C. for 20 minutes. The test fungus, Aspergillus niger, was grown on potato dextrose agar for 7-10 days. A spore/hyphal suspension of the fungus was prepared by washing down the spores/hyphae from the slant with sterile saline into a bottle containing 30 ml sterile saline and shaken. The chemicals were added to the sterile mineral-salts medium in the desired concentrations, and each flask was inoculated with a suspension of the fungal suspension to give a final fungal count of approximately 1×10^6 cfu/ml. The inoculated samples were incubated at 25° C. and inspected visually for growth or no growth at 7 and 14 days.

Aspergillus niger [2] = test: Wet blue pieces dipped in active substance, exposed to airborne spores in petri-dish growth chambers; design: key to GROWTH Wk. 1 / GROWTH Wk. 2 / GROWTH Wk. 3 / GROWTH Wk. 4 / GROWTH Wk. 5 / GROWTH Wk. 6 / GROWTH Wk. 7: 0: no growth on surface; +: less than half of surface covered with mold; ++: about half of surface covered with mold; +++: about ¾ of surface covered with mold; ++++: the whole surface covered with mold; conditions: for performance against Aspergillus niger on wet blue compared with the controls: wet blue dipped in 0.5% or 0.25% (by wt) mixtures
Protocol: Sodium omadine was included among the substances tested, as a positive control. The test organism, Aspergillus niger, was grown on potato dextrose agar for 5-days in petri-dishes. The wet blue pieces were placed on top of pieces of bent glass rod, thereby preventing direct contact with the “lawn” of Aspergillus niger. Thus, exposure of the wet blue to Aspergillus niger was limited to airborne spores, simulating one of the most common modes of exposure experienced in practice. For each active substance and concentration studied, wet blue pieces were suspended both grain side up and flesh side up. A bottom half of a petri-dish was used as a cover to provide a growth chamber for each sample. These growth chambers were incubated at 25° C. and evaluated weekly to determine the degree of fungal infestation on the wet blue surfaces.

Penicillium sp. = test: Wet blue pieces dipped in active substance, mold exposure in petri-dishes, industrial isolate; design: key to GROWTH Wk. 1 / GROWTH Wk. 2 / GROWTH Wk. 3 / GROWTH Wk. 4 / GROWTH Wk. 5 / GROWTH Wk. 7 / GROWTH Wk. 8 / GROWTH Wk. 9: 0: no growth on surface; +: less than half of surface covered with mold; ++: about half of surface covered with mold; +++: about ¾ of surface covered with mold; ++++: the whole surface covered with mold
Protocol: One inch square pieces of wet blue that had not been previously treated with fungicide were dipped in either 0.5% or 0.25% (by wt) mixtures of each active substance in water. Sodium omadine was included among the substances tested, as a positive control. The test organism, Aspergillus niger, was grown on potato dextrose agar for 5-days in petri-dishes. The wet blue pieces were placed on top of pieces of bent glass rod, thereby preventing direct contact with the “lawn” of Aspergillus niger. Thus, exposure of the wet blue to Aspergillus niger was limited to airborne spores, simulating one of the most common modes of exposure experienced in practice. For each active substance and concentration studied, wet blue pieces were suspended both grain side up and flesh side up. A bottom half of a petri-dish was used as a cover to provide a growth chamber for each sample. These growth chambers were incubated at 25° C. and evaluated weekly to determine the degree of fungal infestation on the wet blue surfaces.
Some of the minimum risk fungicides identified above were further tested against an industrial isolate of Penicillium sp, as shown in Table 3. This particular “wild strain” of Penicillium was isolated from commercial wet blue that was seriously contaminated with mold. […] Once again, one inch square pieces of wet blue were dipped in mixtures of active substances in water—this time at 1% and 0.5% concentrations. The mold exposure was carried out in petri-dishes as in EXAMPLE 2, but with Penicillium sp. as the test organism.

Compound: CCC(=O)OCCc1ccccc1 [2-Phenylethyl propionate]
- GROWTH 7-days (Aspergillus niger [1]; 1% by wt.): −
- GROWTH 14-days (Aspergillus niger [1]; 1% by wt.): −
- performance against Aspergillus niger on wet blue compared with the controls (Aspergillus niger [2]; petri-dishes): no better than the controls

Compound: O=C(O)CC(O)(CC(=O)O)C(=O)O [Citric acid]
- GROWTH 7-days (Aspergillus niger [1]; 0.5% by wt.): −
- GROWTH 14-days (Aspergillus niger [1]; 0.5% by wt.): −
- GROWTH 7-days (Aspergillus niger [1]; 1% by wt.): −
- GROWTH 14-days (Aspergillus niger [1]; 1% by wt.): −

Compound: C=CCc1ccc(O)c(OC)c1 [Eugenol]
- GROWTH 7-days (Aspergillus niger [1]; 0.5% by wt.): −
- GROWTH 14-days (Aspergillus niger [1]; 0.5% by wt.): −
- GROWTH 7-days (Aspergillus niger [1]; 1% by wt.): −
- GROWTH 14-days (Aspergillus niger [1]; 1% by wt.): −
- performance against Aspergillus niger on wet blue compared with the controls (Aspergillus niger [2]; petri-dishes): no better than the controls

Compound: CC(C)=CCC/C(C)=C/CO [Geraniol]
- GROWTH 7-days (Aspergillus niger [1]; 0.5% by wt.): −
- GROWTH 14-days (Aspergillus niger [1]; 0.5% by wt.): −
- GROWTH 7-days (Aspergillus niger [1]; 1% by wt.): −
- GROWTH 14-days (Aspergillus niger [1]; 1% by wt.): −
- performance against Aspergillus niger on wet blue compared with the controls (Aspergillus niger [2]; petri-dishes): no better than the controls

Compound: C/C=C/C=C/C(=O)[O-].[K+] [Potassium sorbate]
- GROWTH 7-days (Aspergillus niger [1]; 0.5% by wt.): −
- GROWTH 14-days (Aspergillus niger [1]; 0.5% by wt.): +++
- GROWTH 7-days (Aspergillus niger [1]; 1% by wt.): −
- GROWTH 14-days (Aspergillus niger [1]; 1% by wt.): −

Compound: O=C([O-])c1ccccc1.[Na+] [Sodium benzoate]
- GROWTH 7-days (Aspergillus niger [1]; 0.5% by wt.): ++
- GROWTH 7-days (Aspergillus niger [1]; 1% by wt.): +

Compound: CC(=O)c1c([O-])cc(C)oc1=O.[Na+] [Sodium dehydroacetate, reference compound]
- GROWTH 7-days (Aspergillus niger [1]; 0.5% by wt.): −
- GROWTH 14-days (Aspergillus niger [1]; 0.5% by wt.): −
- GROWTH 7-days (Aspergillus niger [1]; 1% by wt.): −
- GROWTH 14-days (Aspergillus niger [1]; 1% by wt.): −

Compound: CCCCCCCCCCCCOS(=O)(=O)[O-].[Na+] [Sodium lauryl sulfate]
- GROWTH 7-days (Aspergillus niger [1]; 0.5% by wt.): −
- GROWTH 14-days (Aspergillus niger [1]; 0.5% by wt.): −
- GROWTH 7-days (Aspergillus niger [1]; 1% by wt.): −
- GROWTH 14-days (Aspergillus niger [1]; 1% by wt.): −
- GROWTH Wk. 1 (Aspergillus niger [2]; 0.25% (flesh)): 0
- GROWTH Wk. 2 (Aspergillus niger [2]; 0.25% (flesh)): 0
- GROWTH Wk. 3 (Aspergillus niger [2]; 0.25% (flesh)): 0
- GROWTH Wk. 4 (Aspergillus niger [2]; 0.25% (flesh)): 0
- GROWTH Wk. 5 (Aspergillus niger [2]; 0.25% (flesh)): 0
- GROWTH Wk. 6 (Aspergillus niger [2]; 0.25% (flesh)): 0
- GROWTH Wk. 7 (Aspergillus niger [2]; 0.25% (flesh)): ++
- GROWTH Wk. 1 (Aspergillus niger [2]; 0.25% (grain)): 0
- GROWTH Wk. 2 (Aspergillus niger [2]; 0.25% (grain)): 0
- GROWTH Wk. 3 (Aspergillus niger [2]; 0.25% (grain)): 0
- GROWTH Wk. 4 (Aspergillus niger [2]; 0.25% (grain)): 0
- GROWTH Wk. 5 (Aspergillus niger [2]; 0.25% (grain)): 0
- GROWTH Wk. 6 (Aspergillus niger [2]; 0.25% (grain)): 0
- GROWTH Wk. 7 (Aspergillus niger [2]; 0.25% (grain)): ++
- GROWTH Wk. 1 (Aspergillus niger [2]; 0.5% (flesh)): 0
- GROWTH Wk. 2 (Aspergillus niger [2]; 0.5% (flesh)): 0
- GROWTH Wk. 3 (Aspergillus niger [2]; 0.5% (flesh)): 0
- GROWTH Wk. 4 (Aspergillus niger [2]; 0.5% (flesh)): 0
- GROWTH Wk. 5 (Aspergillus niger [2]; 0.5% (flesh)): 0
- GROWTH Wk. 6 (Aspergillus niger [2]; 0.5% (flesh)): 0
- GROWTH Wk. 7 (Aspergillus niger [2]; 0.5% (flesh)): 0
- GROWTH Wk. 1 (Aspergillus niger [2]; 0.5% (grain)): 0
- GROWTH Wk. 2 (Aspergillus niger [2]; 0.5% (grain)): 0
- GROWTH Wk. 3 (Aspergillus niger [2]; 0.5% (grain)): 0
- GROWTH Wk. 4 (Aspergillus niger [2]; 0.5% (grain)): 0
- GROWTH Wk. 5 (Aspergillus niger [2]; 0.5% (grain)): 0
- GROWTH Wk. 6 (Aspergillus niger [2]; 0.5% (grain)): 0
- GROWTH Wk. 7 (Aspergillus niger [2]; 0.5% (grain)): +
- duration of protection of wet blue (Aspergillus niger [2]; at the concentration tested, petri-dishes): six to seven
- GROWTH Wk. 1 (Penicillium sp.; 0.5% (flesh)): 0
- GROWTH Wk. 2 (Penicillium sp.; 0.5% (flesh)): 0
- GROWTH Wk. 3 (Penicillium sp.; 0.5% (flesh)): 0
- GROWTH Wk. 4 (Penicillium sp.; 0.5% (flesh)): +
- GROWTH Wk. 5 (Penicillium sp.; 0.5% (flesh)): ++
- GROWTH Wk. 7 (Penicillium sp.; 0.5% (flesh)): ++++
- GROWTH Wk. 8 (Penicillium sp.; 0.5% (flesh)): ++++
- GROWTH Wk. 9 (Penicillium sp.; 0.5% (flesh)): ++++
- GROWTH Wk. 1 (Penicillium sp.; 0.5% (grain)): 0
- GROWTH Wk. 2 (Penicillium sp.; 0.5% (grain)): 0
- GROWTH Wk. 3 (Penicillium sp.; 0.5% (grain)): +
- GROWTH Wk. 4 (Penicillium sp.; 0.5% (grain)): ++++
- GROWTH Wk. 5 (Penicillium sp.; 0.5% (grain)): ++++
- GROWTH Wk. 7 (Penicillium sp.; 0.5% (grain)): ++++
- GROWTH Wk. 8 (Penicillium sp.; 0.5% (grain)): ++++
- GROWTH Wk. 9 (Penicillium sp.; 0.5% (grain)): ++++
- GROWTH Wk. 1 (Penicillium sp.; 1% (flesh)): 0
- GROWTH Wk. 2 (Penicillium sp.; 1% (flesh)): 0
- GROWTH Wk. 3 (Penicillium sp.; 1% (flesh)): 0
- GROWTH Wk. 4 (Penicillium sp.; 1% (flesh)): 0
- GROWTH Wk. 5 (Penicillium sp.; 1% (flesh)): +
- GROWTH Wk. 7 (Penicillium sp.; 1% (flesh)): ++++
- GROWTH Wk. 8 (Penicillium sp.; 1% (flesh)): ++++
- GROWTH Wk. 9 (Penicillium sp.; 1% (flesh)): ++++
- GROWTH Wk. 1 (Penicillium sp.; 1% (grain)): 0
- GROWTH Wk. 2 (Penicillium sp.; 1% (grain)): 0
- GROWTH Wk. 3 (Penicillium sp.; 1% (grain)): 0
- GROWTH Wk. 4 (Penicillium sp.; 1% (grain)): 0
- GROWTH Wk. 5 (Penicillium sp.; 1% (grain)): 0
- GROWTH Wk. 7 (Penicillium sp.; 1% (grain)): 0
- GROWTH Wk. 8 (Penicillium sp.; 1% (grain)): 0
- GROWTH Wk. 9 (Penicillium sp.; 1% (grain)): 0
- resistance of treated wet blue compared with unprotected controls (Penicillium sp.; wet blue dipped at 1% and 0.5%, Prosan 18 as positive control): substantially improved over the unprotected controls

Compound: [Na+].[O-][n+]1ccccc1[S-] [Sodium omadine, reference compound]
- GROWTH Wk. 1 (Aspergillus niger [2]; 0.05% (flesh)): 0
- GROWTH Wk. 2 (Aspergillus niger [2]; 0.05% (flesh)): 0
- GROWTH Wk. 3 (Aspergillus niger [2]; 0.05% (flesh)): 0
- GROWTH Wk. 4 (Aspergillus niger [2]; 0.05% (flesh)): 0
- GROWTH Wk. 5 (Aspergillus niger [2]; 0.05% (flesh)): 0
- GROWTH Wk. 6 (Aspergillus niger [2]; 0.05% (flesh)): 0
- GROWTH Wk. 7 (Aspergillus niger [2]; 0.05% (flesh)): 0
- GROWTH Wk. 1 (Aspergillus niger [2]; 0.05% (grain)): 0
- GROWTH Wk. 2 (Aspergillus niger [2]; 0.05% (grain)): 0
- GROWTH Wk. 3 (Aspergillus niger [2]; 0.05% (grain)): 0
- GROWTH Wk. 4 (Aspergillus niger [2]; 0.05% (grain)): 0
- GROWTH Wk. 5 (Aspergillus niger [2]; 0.05% (grain)): 0
- GROWTH Wk. 6 (Aspergillus niger [2]; 0.05% (grain)): 0
- GROWTH Wk. 7 (Aspergillus niger [2]; 0.05% (grain)): 0

Compound: O=C([O-])c1ccccc1O.[Na+] [Sodium salicylate, reference compound]
- GROWTH 7-days (Aspergillus niger [1]; 0.5% by wt.): ++++
- GROWTH 7-days (Aspergillus niger [1]; 1% by wt.): ++++
